Marks after values point to notes of the source that are not given here.
Legend:
[1] = test system: human liver cancer cells (HepG2); assay: Tumor weight and tumor inhibition in nude mice bearing HepG2; type: in vivo; conditions: for Intratumoral injection Tumor inhibition rate / Intratumoral injection Tumor weight / Tumor inhibition rate of intraperitoneal injection: 5th day after last dose; for Y(%) tumor inhibition rate: intratumoral every 3 days x3, <150 μl, fifth day
Experimental: One of the core characteristics of tumors is heterogeneity. […] The corresponding negative control was normal saline.
(§1) They were injected intraperitoneally and intratumorally.
The negative control group was given normal saline. The compositions of the study drug are as shown in the table below: 4 types and concentrations of amino acid based nutrient single drugs (X % amino acid based nutrients), 18 types and concentrations of ineffective absorption drugs (Y % ineffective absorption drugs), 24 compositions comprising various types and concentrations of amino acid based nutrients and ineffectively absorption drugs (X % amino acid based nutrients/Y % ineffectively absorption drugs).
The negative control was normal saline. The compositions of 16 study drugs, as shown in the table below, comprise: a 5-fluorouracil single drug of 4 varying concentrations (X % 5-fluorouracil), and an amino acid based nutrient with 5 varying concentrations (Y % amino acid based nutrient), 7 compositions consisting of 5-fluorouracil of varying concentrations and an amino acid based nutrient of varying concentrations (X % 5-fluorouracil/Y % amino acid based nutrient). […] The dose at each time was: 5-fluorouracil 50 mg/kg, glutathione ≤1 g/kg, and an injection volume was ≤150 μl/mouse.
The negative control was normal saline, the positive control was 1% 5-fluorouracil, and the study drug was 1% methylene blue/10% amino acid based nutrient composition (the type of the amino acid based nutrient is variable). The amino acid based nutrients in the compositions used in study groups 1-13 were: arginine, glycine, cysteine hydrochloride, valine, threonine, proline, histidine hydrochloride, phenylalanine, lysine, leucine, alanine, glutathione, serine, and the study drug used in the study group 14 was 1% methylene blue/5% arginine/5% glycine.

[2] = test system: breast cancer 4T1 cells; assay: Tumor weight and tumor inhibition in BALB/c mice bearing breast cancer 4T1 cells; conditions: for Tumor inhibition rate / Tumor weight (x ± s) / Tumor weight: intratumoral 150 μl/mouse every 3 days x3; for Intratumoral injection Tumor inhibition rate / Intratumoral injection Tumor weight: Table 10, avg tumor volume 336 mm^3, 150 μl/mouse every 3 days x3, 5th day after last dose;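 on all read-outs here: subcutaneous grafts in the right axilla, tumors excised and weighed after euthanasia, inhibition rate derived from group mean tumor weight versus the negative control group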
Experimental: In the following examples, unless otherwise specified, animal tests of subcutaneous transplantation tumors were performed in accordance with test guidelines issued by a drug administration authority. […] The subcutaneous transplantation was carried out according to a conventional method for subcutaneous inoculation of tumor cells. […] Items to be observed, measured and analyzed in the experiments included general status, body weight, food intake, tumor volume, tumor weight, thymus weight, spleen weight, and the like.
The tumor growth inhibition rate (abbreviated as tumor inhibition rate in the present invention) is calculated through the following equation:
wherein TW is an average tumor weight of a study group; CW is an average tumor weight of a negative control group.
The effects of the co-use of drugs (including efficacy and safety) can theoretically be based on the judgment of q:
q=actual combined effect/theoretical expected effect of simple addition.
When q=1, the actual combined effect meets the theoretical expectation, showing an additive effect; when q<1, the actual combined effect is weaker than the theoretical expectation, showing an antagonistic effect; and when q>1, the actual combined effect exceeds the theoretical expectation, showing a synergic effect. Unless otherwise specified, single-use efficacy of A or B (denoted as EA and EB respectively) and the actual combined efficacy of A/B (denoted as EA+B) are both tumor inhibition rates.
In one experiment, the test animal was a BALB/c mouse, the modeling cells were breast cancer 4T1 cells, and the transplantation tumor was modeled at 1×10^6 cells/mouse under the skin of the animal's right axilla. […] The experimental groups were divided into 1 negative control group (group 0) and 13 study groups (groups 1-13). They were all injected intratumorally. […] Each group was administered once every 3 days for a total of 3 times, each time at an injection dose of 150 μl//mouse. During the administration, general state of the animals and the degree of necrosis of normal tissues around the tumor after the administration were observed. On the 5th day after the administration was ended, the animals were euthanized, and the tumor weight was measured after anatomy to the animals. The tumor inhibition rate was calculated from the negative control group of each administration mode.
In another experiment, the test animal was a BALB/c mouse, the modeling cells were breast cancer 4T1 cells, and the transplantation tumor was modeled at 1×10^6 cells/mouse under the skin of the animal's right axilla. […] Each group was administered by intratumoral injection once every 3 days for a total of 3 times, each time at an injection dose of 150 μl/mouse. On the 5th day after the administration was ended, the animals were euthanized, and the tumor weight was measured after anatomy to the animals. The tumor inhibition rate was calculated from the negative control group.
In another experiment, the test animal was BALB/c mice, the modeling cells were breast cancer 4T1 cells, and the transplantation tumor was modeled at 1×10^6 cells/mouse under the skin of the animal's right axilla. […] Each group was administered by intratumoral injection once every 3 days for a total of 3 times, each time at an injection dose of 150 μl/mouse. On the 5th day after the administration was ended, the animals were euthanized, and the tumor weight was measured after anatomy to the animals. The tumor inhibition rate was calculated from the negative control group.
In another experiment, the test animal was a BALB/c mouse, the modeling cells were breast cancer 4T1 cells, and the transplantation tumor under the skin of the animal's right axilla was modeled at 1×10^6 cells/mouse.

[3] = test system: pancreatic cancer cells PANC-1; assay: Tumor inhibition in nude mice bearing pancreatic cancer cells PANC-1; type: in vivo; conditions: for Tumor inhibition rate: Table 4, avg tumor volume 136 mm^3, intratumoral every 3 days x3, ≤150 μl, next day; for Tumor inhibition rate of intraperitoneal injection / Tumor inhibition rate of intratumoral injection: Table 3, avg tumor volume 105 mm^3, 100 μl/mouse every 3 days x3, next day after last dose
Experimental: as §1
After anatomy, the tumor weight was measured and the tumor inhibition rate was calculated.

[4] = Table 16, avg tumor volume 169 mm^3, intratumoral every 3 days x3, ≤150 μl/mouse, 5th day
[5] = Table 12, avg tumor volume 317 mm^3, 5th day
[6] = Table 11, avg tumor volume 164 mm^3, intratumoral every 3 days x3, ≤150 μl, fifth day after last dose
[7] = Table 6, avg tumor volume 153 mm^3, ≤120 μl/mouse every 3 days x3
[8] = Table 8, avg tumor volume 175 mm^3, ≤150 μl/mouse every 3 days x3
[9] = Table 17, avg tumor volume 317 mm^3, fifth day
[10] = Table 14, avg tumor volume 325 mm^3, 5th day

O=c1[nH]cc(F)c(=O)[nH]1 [0.5% 5-fluorouracil, 5-fluorouracil] was tested, and the Tumor inhibition rate [1, 4] was “(59%)*”.
[Na+].[OH-] [0.5% NaOH, sodium hydroxide] was tested, and the Tumor inhibition rate [2, 5] was 31% and the “Tumor weight (x ± s)” value [2, 5] was 1.54 g.
Cl.N[C@@H](CCC(=O)O)C(=O)O [0.5% glutamic hydrochloride, L-glutamic hydrochloride] was tested, and the Tumor inhibition rate ([3]; hydrochloride) was 11%.
With Cl [0.5% hydrochloric acid, hydrochloric acid] the Tumor inhibition rate [1, 6] was “(53%)”.
For CN(C)c1ccc2nc3ccc(=[N+](C)C)cc-3sc2c1 [0.7% methylene blue, Methylene blue], the “Intratumoral injection Tumor inhibition rate” value [1, 7] was 13%, the “Intratumoral injection Tumor weight” value [1, 7] was 2.02 ± 0.31 g and the “Tumor inhibition rate of intraperitoneal injection” value [1, 7] was 2%.
Work on Cl.N[C@@H](CCC(=O)O)C(=O)O [0.15% glutamic hydrochloride, L-glutamic hydrochloride] yielded a Tumor inhibition rate ([3]; hydrochloride) of 16%.
Compound Cl.N[C@@H](CCC(=O)O)C(=O)O [0.25% glutamic hydrochloride, L-glutamic hydrochloride] has a Tumor inhibition rate ([3]; hydrochloride) of 13%.
With Cl [0.25% hydrochloric acid, hydrochloric acid] the Tumor inhibition rate [1, 6] was “(31%)”.
With CN(C)c1ccc2nc3ccc(=[N+](C)C)cc-3sc2c1 [0.25% methylene blue, Methylene blue] the Tumor inhibition rate [1, 6] was “(11%)”.
CN(C)c1ccc2nc3ccc(=[N+](C)C)cc-3sc2c1 [0.35% methylene blue, Methylene blue] was tested, and the Tumor inhibition rate [1, 6] was “(18%)”.
For O=c1[nH]cc(F)c(=O)[nH]1 [0.75% 5-fluorouracil, 5-fluorouracil], the Tumor inhibition rate [1, 4] was “(63%)”.
For O=c1[nH]cc(F)c(=O)[nH]1 [1% 5-fluorouracil, 5-fluorouracil], the “Tumor inhibition rate of intraperitoneal injection” value [3] was 63%, the “Tumor inhibition rate of intratumoral injection” value [3] was 59% and the “Intratumoral injection Tumor inhibition rate” value [1, 7] was 66%. For the same compound, the “Intratumoral injection Tumor weight” value [1, 7] was 0.78 ± 0.21 g, the “Tumor inhibition rate of intraperitoneal injection” value [1, 7] was 59% and the “Intratumoral injection Tumor inhibition rate” value [1, 8] was 67%. The “Intratumoral injection Tumor weight” value [1, 8] was 0.84 ± 0.25 g, the “Tumor inhibition rate of intraperitoneal injection” value [1, 8] was 58% and the Tumor inhibition rate [1, 4] was “(66%)”. The “Y(%) tumor inhibition rate” value ([1]; Table 18, avg tumor volume 186 mm^3) was 61%, the “Y(%) tumor inhibition rate” value ([1]; Table 19, avg tumor volume 172 mm^3) was 63% and the “Intratumoral injection Tumor inhibition rate” value [2] was 51%. The “Intratumoral injection Tumor weight” value [2] was 0.63 ± 0.21 g, the Tumor inhibition rate [2, 9] was 53% and the Tumor weight [2, 9] was 0.73 ± 0.21 g.
In the case of CC(=O)O [1% acetic acid, acetic acid], the Tumor inhibition rate [1, 6] is reported as “(26%)”.
For N=C(N)NCCC[C@H](N)C(=O)O [1% arginine, L-arginine], the Tumor inhibition rate [3] was 17%.
Compound Cl.N[C@@H](CCC(=O)O)C(=O)O [1% glutamic hydrochloride, L-glutamic hydrochloride] has a Tumor inhibition rate ([3]; hydrochloride) of 18%.
With N[C@@H](CCC(=O)N[C@@H](CS)C(=O)NCC(=O)O)C(=O)O [1% glutathione, Reduced glutathione] the Tumor inhibition rate [3] was 11%.
For Cl [1% hydrochloric acid, hydrochloric acid], the Tumor inhibition rate [1, 6] was “(68%)”.
For O=c1[nH]cc(F)c(=O)[nH]1 [1.5% 5-fluorouracil, 5-fluorouracil], the Tumor inhibition rate [1, 4] was “(69%)”.
[Cl-].[K+] [2% KCl, potassium chloride] was tested, and the Tumor inhibition rate [2, 10] was 11% and the “Tumor weight (x ± s)” value [2, 10] was 2.19 ± 0.31 g.
For CC(=O)O [2% acetic acid, acetic acid], the Tumor inhibition rate [1, 6] was “(46%)”.
N=C(N)NCCC[C@H](N)C(=O)O [2% arginine, L-arginine] was tested, and the Tumor inhibition rate [3] was 15%.
In the case of Cl.N[C@@H](CCC(=O)O)C(=O)O [2% glutamic hydrochloride, L-glutamic hydrochloride], the Tumor inhibition rate ([3]; hydrochloride) is reported as 49%.
N[C@@H](CCC(=O)N[C@@H](CS)C(=O)NCC(=O)O)C(=O)O [2% glutathione, Reduced glutathione] was tested, and the Tumor inhibition rate [3] was 13%.
In the case of Cl [2% hydrochloric acid, hydrochloric acid], the Tumor inhibition rate [1, 6] is reported as “(83%)”.
Compound N=C(N)NCCC[C@H](N)C(=O)O [2.5% arginine, L-arginine] has a Tumor inhibition rate [2, 9] of 5% and a Tumor weight [2, 9] of 1.48 ± 0.32 g.
For N[C@@H](CCC(=O)N[C@@H](CS)C(=O)NCC(=O)O)C(=O)O [2.5% glutathione, Reduced glutathione], the Tumor inhibition rate [1, 6] was “(12%)*” and the Tumor inhibition rate [1, 4] was “(12%)”.
With CC/C=C\C/C=C\C/C=C\C/C=C\C/C=C\C/C=C\CCC(=O)O [3% DHA, Docosahexaenoic acid (DHA)] the Tumor inhibition rate [1, 6] was “(21%)”.
With N=C(N)NCCC[C@H](N)C(=O)O [3% arginine, L-arginine] the Tumor inhibition rate [3] was 19%.
N[C@@H](CCC(=O)N[C@@H](CS)C(=O)NCC(=O)O)C(=O)O [3% glutathione, Reduced glutathione] showed a Tumor inhibition rate [3] of 12%.
CC(=O)O [3.5% acetic acid, acetic acid] was tested, and the “Intratumoral injection Tumor inhibition rate” value [1, 7] was 64%, the “Intratumoral injection Tumor weight” value [1, 7] was 0.84 ± 0.23 g and the “Tumor inhibition rate of intraperitoneal injection” value [1, 7] was 6%.
N=C(N)NCCC[C@H](N)C(=O)O [4% arginine, L-arginine] was tested, and the Tumor inhibition rate [2, 5] was 2% and the “Tumor weight (x ± s)” value [2, 5] was 2.31 g.
O=C1OC2(c3cc(I)c(O)c(I)c3Oc3c2cc(I)c(O)c3I)c2c(Cl)c(Cl)c(Cl)c(Cl)c21 [5% Bengal Red, Bengal Red] was tested, and the Tumor inhibition rate [1, 6] was “(46%)”.
CC/C=C\C/C=C\C/C=C\C/C=C\C/C=C\C/C=C\CCC(=O)O [5% DHA, Docosahexaenoic acid (DHA)] was tested, and the “Intratumoral injection Tumor inhibition rate” value [1, 7] was 27%, the “Intratumoral injection Tumor weight” value [1, 7] was 1.69 ± 0.33 g and the “Tumor inhibition rate of intraperitoneal injection” value [1, 7] was 4%. For the same compound, the Tumor inhibition rate [1, 6] was “(28%)”.
For N=C(N)NCCC[C@H](N)C(=O)O [5% arginine, L-arginine], the Tumor inhibition rate [3] was 16%, the Tumor inhibition rate [2, 9] was 10% and the Tumor weight [2, 9] was 1.40 ± 0.26 g.
Work on Cl.N[C@@H](CCC(=O)O)C(=O)O [5% glutamic hydrochloride, L-glutamic hydrochloride] yielded a Tumor inhibition rate ([3]; hydrochloride) of 76%.
In the case of N[C@@H](CCC(=O)N[C@@H](CS)C(=O)NCC(=O)O)C(=O)O [5% glutathione, Reduced glutathione], the Tumor inhibition rate [3] is reported as 32%, the Tumor inhibition rate [1, 6] is reported as “(31%)” and the Tumor inhibition rate [1, 4] is reported as “(32%)”.
For [Na+].[OH-] [7% NaOH, sodium hydroxide], the Tumor inhibition rate [2, 5] was 75% and the “Tumor weight (x ± s)” value [2, 5] was 0.59 g.
In the case of N=C(N)NCCC[C@H](N)C(=O)O [7.5% arginine, L-arginine], the Tumor inhibition rate [3] is reported as 21%.
N[C@@H](CCC(=O)N[C@@H](CS)C(=O)NCC(=O)O)C(=O)O [7.5% glutathione, Reduced glutathione] gave a Tumor inhibition rate [3] of 45%.
With O=C1OC2(c3cc(I)c(O)c(I)c3Oc3c2cc(I)c(O)c3I)c2c(Cl)c(Cl)c(Cl)c(Cl)c21 [10% Bengal Red, Bengal Red] the Tumor inhibition rate [1, 6] was “(63%)”.
In the case of CC(=O)O [10% acetic acid, acetic acid], the “Intratumoral injection Tumor inhibition rate” value [2] is reported as 53% and the “Intratumoral injection Tumor weight” value [2] is reported as 0.60 ± 0.21 g.
N=C(N)NCCC[C@H](N)C(=O)O [10% arginine, L-arginine] was tested, and the Tumor inhibition rate [3] was 43%, the Tumor inhibition rate [1, 6] was “(43%)” and the Tumor inhibition rate [2, 5] was 19%. For the same compound, the “Tumor weight (x ± s)” value [2, 5] was 1.91 g, the Tumor inhibition rate [2, 9] was 21% and the Tumor weight [2, 9] was 1.23 ± 0.31 g.
N[C@@H](CCC(=O)N[C@@H](CS)C(=O)NCC(=O)O)C(=O)O [12.5% glutathione, Reduced glutathione] gave a Tumor inhibition rate [3] of 66%.
CC(=O)O [20% acetic acid, acetic acid] was tested, and the Tumor inhibition rate [1, 6] was “(92%)**”.
NCC(=O)O [20% glycine, Glycine] was tested, and the “Tumor inhibition rate of intraperitoneal injection” value [3] was 52%, the “Tumor inhibition rate of intratumoral injection” value [3] was 4% and the “Intratumoral injection Tumor inhibition rate” value [1, 8] was 54%. The “Intratumoral injection Tumor weight” value [1, 8] was 1.17 ± 0.28 g, the “Tumor inhibition rate of intraperitoneal injection” value [1, 8] was 2% and the “Intratumoral injection Tumor inhibition rate” value [2] was 18%. The “Intratumoral injection Tumor weight” value [2] was 1.05 ± 0.32 g.
In the case of NCCCC[C@H](N)C(=O)O [20% lysine, L-lysine], the “Tumor inhibition rate of intraperitoneal injection” value [3] is reported as 53% and the “Tumor inhibition rate of intratumoral injection” value [3] is reported as 1%.

From patent US20220151935A1, “USE OF AMINO ACID BASED NUTRIENTS AND PHARMACEUTICAL COMPOSITION CONTAINING THE SAME” (priority 2018, published 2022)
